Assay results taken from patent US6893846B2, “Primers for use in detecting beta-lactamases” (priority 1998, dated 2005).
Where two headings read alike, the source gives them in different places.

Key:
[1] = target: single beta-lactamase in K. pneumoniae cell extracts (Escherichia coli, UniProt P62593, E102K/R162S); test: Spectrophotometric hydrolysis assay on crude beta-lactamase extracts; conditions: K. pneumoniae Pit 16 extract, beta-lactamase pI 5.6; 100 μM substrate
[2] = target: single beta-lactamase in K. pneumoniae cell extracts (Klebsiella pneumoniae, UniProt P0AD64, E235K/G234S); test: as above; conditions: K. pneumoniae Pit 82 extract, beta-lactamase pI 8.2; 100 μM substrate
[3] = target: single beta-lactamase in K. pneumoniae cell extracts (Klebsiella pneumoniae, UniProt P0AD64, G234S); test: as above; conditions: K. pneumoniae Pit 100 extract, beta-lactamase pI 7.6; 100 μM substrate
[4] = target: single beta-lactamase in E. coli cell extracts (Escherichia coli, UniProt P62593, E102K/R162S); test: as above; conditions: E. coli Pit 64 extract, beta-lactamase pI 5.6; 100 μM substrate
[5] = target: single beta-lactamase in P. mirabilis cell extracts (Escherichia coli, UniProt P62593, E102K/R162S); test: as above; conditions: P. mirabilis Pit 85 extract, beta-lactamase pI 5.6; 100 μM substrate
K. pneumoniae 225 [6] = test: NCCLS microdilution susceptibility test; assay type: cell-based, Klebsiella pneumoniae; conditions: Klebsiella pneumoniae, 225
K. pneumoniae 225 [7] = test: NCCLS disk diffusion assay; assay type: cell-based, Klebsiella pneumoniae; conditions: disk diffusion, Kleb 225
K. pneumoniae = test: Agar dilution MIC, South African isolates; assay type: cell-based, Klebsiella pneumoniae; conditions: tzp with tazobactam 4 μg/ml
Text: (§1) The strains were provided in response to a request for all strains of Enterobacteriaceae, lacking inducible beta-lactamases, that were intermediate or resistant to cefotaxime or ceftazidime. […]

E. coli = test: Agar dilution MIC, South African isolates; assay type: cell-based, Escherichia coli; conditions: tzp with tazobactam 4 μg/ml
Text: as §1

P. mirabilis = test: Agar dilution MIC, South African isolates; assay type: cell-based, Proteus mirabilis; conditions: 4 strains, tzp with tazobactam 4 μg/ml
Text: During a period of three months in 1993, […] strains of Klebsiella pneumoniae (13 blood, 5 burn, 7 wound, 11 tracheal isolates), 4 strains of Proteus mirabilis (all wound isolates) and 4 strains of Escherichia coli (1 blood, 1 burn, 2 wound isolates) were collected from patients at the following medical centers in South Africa: Tygerberg Hospital near Cape Town, King Edward VIII Hospital in Durban, Chris Hani Baragwanath Hospital in Soweto and Pretoria Academic Hospital in Pretoria. The strains were provided in response to a request for all strains of Enterobacteriaceae, lacking inducible beta-lactamases, that were intermediate or resistant to cefotaxime or ceftazidime. […] Therefore accurate prevalence data were not obtained.
Antibiotic susceptibility was determined by standard disk diffusion (NCCLS Standard M2-T4, 1994) and agar dilution (NCCLS Standard M7-T2, 1994) procedures. Standard powders of antimicrobial agents were kindly provided by the following companies: piperacillin and tazobactam (Lederle Laboratories, Wayne, N.J.); cefoxitin and imipenem, (Merck, Rathway, N.J.); cefotaxime, (Hoechst-Roussel Pharmaceuticals Inc., Somerville, N.J.); ceftazidime, (Glaxo Group Research Ltd., Greenford, England); aztreonam and cefepime, (Bristol-Myers Squibb, Princeton, N.J.). Disks for agar diffusion were obtained from Becton Dickinson Microbiology Systems (Cockeysville, Md.). For quality control purposes, the following quality control strains were run simultaneously with the test organisms E. coli ATCC 25922, Pseudomonas aeruginosa ATCC 27853, E. coli ATCC 35218, and Staphylococcus aureus ATCC 29213. Throughout this study, results were interpreted using NCCLS criteria for disk diffusion (NCCLS Standard M2-T4, 1994) and broth dilution (NCCLS Standard M7-T2, 1994).

[8] = tested on: E. coli C600N transconjugants; test: Susceptibility of transconjugants; assay type: cell-based, Escherichia coli; conditions: E. coli C600N transconjugants of E. aerogenes 187, 200, 220, 184
Method: (§2) Antibiotic susceptibilities were determined by standard disk-diffusion (NCCLS Standard M2-A6) and agar-dilution (NCCLS Standard M7-A4) procedures. Disks were obtained from Becton Dickinson Microbiology Systems (Cockeysville, Md.). Disk-diffusion susceptibilities to the following antibiotics were determined, ampicillin; amoxicillin clavulanic acid; aztreonam; cefazolin; cefoxitin; cefuroxime; cefotaxime; ceftriaxone; ceftazidime; cefepime; imipenem; gentamicin; trimethoprim/sulfamethoxazole and ciprofloxacin. […] The following quality control strains were run simultaneously with the test organisms Escherichia coli ATCC 25922, Pseudomonas aeruginosa ATCC 27853, and E. coli ATCC 35218. Throughout this study, results were interpreted using NCCLS criteria for disk diffusion (NCCLS M2-A6) and broth dilution (NCCLS M7-A4).
[…]. The filter paper mating technique with overnight incubation at 37° C. were performed as described previously (Philippon et al., Antimicrob. Agents Chemother., 33:1131-1136 (1989)). Transconjugants were selected on LB (Luria Bertani) agar [Difco (Detroit, Mich.)] plates containing 12 μg per ml nalidixic acid and 20 μg per ml ampicillin.

[9] = tested on: E. coli HB101 transformant (17 kb plasmid); conditions: disk diffusion, Tr (17 kb) = transformant E. coli HB101
[10] = tested on: E. coli C600 transconjugant; conditions: disk diffusion, Tc = transconjugate E. coli C600
K. pneumoniae 225 [11] = test: Three-dimensional test (enzymatic inactivation of antibiotics); conditions: beta-lactamase-mediated hydrolysis by K. pneumoniae 225, lawn E. coli ATCC 25922
[12] = target: beta-lactamases in sonic extracts of K. pneumoniae (Escherichia coli, UniProt P62593)
[13] = target: beta-lactamases in sonic extracts of K. pneumoniae (Klebsiella pneumoniae, UniProt P0AD64); conditions: Kpn1, beta-lactamase pI 7.6 (SHV-1)
[14] = target: beta-lactamases in sonic extracts of K. pneumoniae (Klebsiella pneumoniae, UniProt P0AD64, E235K/G234S); conditions: Kpn2, beta-lactamase pI 8.2 (SHV-5)
[15] = tested on: beta-lactamases in sonic extracts of K. pneumoniae
[16] = target: beta-lactamases in sonic extracts of E. coli (Escherichia coli, UniProt P62593); test: Isoelectric focusing overlay: cefotaxime hydrolysis and inhibitors
[17] = tested on: beta-lactamases in sonic extracts of E. coli; test: as above
[18] = tested on: beta-lactamases in sonic extracts of E. aerogenes; test: Isoelectric focusing overlay: cefotaxime hydrolysis, inhibitors, induction
K. pneumoniae 225 [19] = test: MicroScan Walkaway microdilution susceptibility test; assay type: cell-based, Klebsiella pneumoniae; conditions: K. pneumoniae 225
E. aerogenes = test: Disk diffusion susceptibility test; assay type: cell-based, Enterobacter aerogenes; conditions: all the E. aerogenes strains
Method: as §2

[20] = Kpn2, beta-lactamase pI 5.4 (TEM-1)
[21] = Kpn3, beta-lactamase pI 5.4 (TEM-1)
[22] = Kpn1, beta-lactamase pI 5.6 (TEM-10 or 26)
[23] = Kpn2, beta-lactamase pI 7.6 (SHV-2 or 8)
[24] = Kpn3, beta-lactamase pI 8.0 (AmpC)
[25] = Ec1, beta-lactamase pI 5.4 (TEM-1)
[26] = Ec2, beta-lactamase pI 5.4 (TEM-1)
[27] = Ec1, beta-lactamase pI 5.6 (TEM-10 or 26)
[28] = Ec2, beta-lactamase pI 7.6 (SHV-2 or 8)
[29] = SHV-3 strain (1), Bush group 1 enzyme pI 8.3
[30] = SHV-3 strain (1), Bush group 2be enzyme pI 6.9
[31] = SHV-4 strains (29), Bush group 1 enzyme pI 8.3
[32] = SHV-4 strains (29), Bush group 2be enzyme pI 7.8
[33] = SHV-5 strain (1), Bush group 1 enzyme pI 8.3
[34] = SHV-5 strain (1), Bush group 2Be enzyme pI 8.0

Compound: O=C(Cc1cccs1)N[C@@H]1C(=O)N2C(C(=O)O)=C(/C=C/c3ccc([N+](=O)[O-])cc3[N+](=O)[O-])CS[C@H]12 [Nitrocefin]
- Hydrolysis [1]: 114 nmol of substrate hydrolyzed/m
- Hydrolysis [2]: 136 nmol of substrate hydrolyzed/m
- Hydrolysis [3]: 159 nmol of substrate hydrolyzed/m
- Hydrolysis [4]: 275 nmol of substrate hydrolyzed/m
- Hydrolysis [5]: 138 nmol of substrate hydrolyzed/m

Compound: C[C@H]1[C@H](NC(=O)/C(=N\OC(C)(C)C(=O)O)c2csc(N)n2)C(=O)N1S(=O)(=O)O [aztreonam]
- MIC (K. pneumoniae 225 [6]): > 64 µg/mL
- Zone Size (K. pneumoniae 225 [7]): 8 mm
- MIC range (K. pneumoniae; resistance phenotype Kpn1, 8 strains): 16 to 64 µg/mL
- MIC range (K. pneumoniae; resistance phenotype Kpn2, 28 strains): 1 to 128 µg/mL
- MIC range (K. pneumoniae; resistance phenotype Kpn3 (K. pneumoniae Pit 68), 1 strain, listed as atm): 2 µg/mL
- MIC range (E. coli; resistance phenotype Ec1, 3 strains): 16 µg/mL
- MIC range (E. coli; resistance phenotype Ec2, 1 strain): 2 µg/mL
- MIC range (P. mirabilis): 0.5 to 2 µg/mL
- susceptibility after transfer of plasmids encoding SHV beta-lactamase genes [8]: decreased susceptibility
- Zone Size [9]: 33 mm
- Zone Size [10]: 7 mm
- three dimensional test (K. pneumoniae 225 [11]): positive
- Hydrolysis [1]: 0.6 nmol of substrate hydrolyzed/m
- Hydrolysis [2]: 0.9 nmol of substrate hydrolyzed/m
- Hydrolysis [3]: 0.9 nmol of substrate hydrolyzed/m
- Hydrolysis [4]: 0.4 nmol of substrate hydrolyzed/m
- Hydrolysis [5]: 0.5 nmol of substrate hydrolyzed/m

Compound: O=C(O)[C@H]1/C(=C/CO)O[C@@H]2CC(=O)N21 [clavulanate]
- Inhibited by [12, 20]: Yes
- Inhibited by [12, 21]: Yes
- Inhibited by [13]: Yes
- Inhibited by [14]: No
- Inhibited by [15, 22]: Yes
- Inhibited by [15, 23]: Yes
- Inhibited by [15, 24]: No
- Inhibited by [16, 25]: Yes
- Inhibited by [16, 26]: Yes
- Inhibited by [17, 27]: Yes
- Inhibited by [17, 28]: Yes
- Inhibited by [18, 29]: no
- Inhibited by [18, 30]: yes
- Inhibited by [18, 31]: no
- Inhibited by [18, 32]: yes
- Inhibited by [18, 33]: no
- Inhibited by [18, 34]: yes

Compound: Cc1onc(-c2ccccc2Cl)c1C(=O)N[C@@H]1C(=O)N2[C@@H]1SC(C)(C)[C@@H]2C(=O)O [cloxacillin]
- Inhibited by [12, 20]: No
- Inhibited by [12, 21]: No
- Inhibited by [13]: No
- Inhibited by [14]: Yes
- Inhibited by [15, 22]: No
- Inhibited by [15, 23]: No
- Inhibited by [15, 24]: Yes
- Inhibited by [16, 25]: No
- Inhibited by [16, 26]: No
- Inhibited by [17, 27]: No
- Inhibited by [17, 28]: No
- Inhibited by [18, 29]: yes
- Inhibited by [18, 30]: no
- Inhibited by [18, 31]: yes
- Inhibited by [18, 32]: no
- Inhibited by [18, 33]: yes
- Inhibited by [18, 34]: no

Compound: trimethoprim/sulfamethoxazole
- MicroScan susceptibility result (K. pneumoniae 225 [19]): Resistant
- MicroScan MIC (K. pneumoniae 225 [19]; MicroScan test, unit not given): > 2/38
- Zone Size (K. pneumoniae 225 [7]): 6 mm
- Disk diffusion susceptibility (E. aerogenes): resistant
- susceptibility after transfer of plasmids encoding SHV beta-lactamase genes [8]: resistance
- Zone Size [9]: 31 mm
- Zone Size [10]: 8 mm
